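Protocol summary: plate cells (96-well), add compound at 5 concentrations, incubate 48 h, interpolate endpoints linearly. The concentration for 50% growth inhibition is given as GI50.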 The source made the active and inactive calls. Cut-off read from the data, not from the text of the source: active = GI50 up to about 1.1 µM and inactive = higher.
Columns and labels:
Assay in all cases: NCI tumour cell line growth inhibition, 48 h
RXF 631 = test system: RXF 631
LXFL 529 = test system: LXFL 529
HOP-18 = test system: HOP-18
MDA-MB-231 = test system: MDA-MB-231
T47D = test system: T47D
BT-549 = test system: BT-549
Hs-578T = test system: Hs-578T
DLD-1 = test system: DLD-1

| Structure (SMILES) | GI50 (LXFL 529) | GI50 (HOP-18) | GI50 (MDA-MB-231) | GI50 (T47D) | GI50 (BT-549) | GI50 (Hs-578T) | GI50 (DLD-1) | further results |
| --- | --- | --- | --- | --- | --- | --- | --- | --- |
| O=C(O)C1CCC(=O)N1C(=O)COc1cc(Cl)c(Cl)cc1Cl (stereo not drawn) | > 100 µM (inactive) | – | – | – | – | – | – | GI50 (RXF 631): > 100 µM (inactive) |
| CCOC(=O)C(C(=O)OCC)c1cc(-c2cc3ccccc3o2)oc(=O)c1C#N | 20.4 µM (inactive) | 16 µM (inactive) | – | – | – | – | – | – |
| CCOC(=O)C(OP(=O)(OCC)OCC)C(F)(F)F (stereo not drawn) | – | – | > 100 µM (inactive) | > 100 µM (inactive) | > 100 µM (inactive) | > 100 µM (inactive) | – | – |
| N#Cc1ccccc1NC(=O)C(=O)C(C(=O)c1ccccc1F)C1OC(=O)c2ccccc21 (stereo not drawn) | 31 µM (inactive) | – | – | – | – | – | 46.8 µM (inactive) | – |
| Clc1ccccc1/C=C/c1cscn1 | > 100 µM (inactive) | – | – | – | – | – | > 100 µM (inactive) | – |
| Cc1cccc(C(O)c2cccnc2)c1O (stereo not drawn) | – | – | > 100 µM (inactive) | > 100 µM (inactive) | > 100 µM (inactive) | > 100 µM (inactive) | – | – |
| CC(C)=CCC(OC(=O)C=C(C)C)c1cc(O)c2c(c1O)C(=O)C=CC2=O (stereo not drawn) | – | 3.52 µM (inactive) | – | – | – | – | 0.279 µM (active) | – |
| Nc1nnc2ccc(Cl)cc2[n+]1[O-] | – | – | 37.9 µM (inactive) | 44.9 µM (inactive) | > 100 µM (inactive) | 41.7 µM (inactive) | – | – |
| O=c1c(-c2ccccc2)c(SCCN2CCCCCC2)n(-c2ccccc2)c(=S)n1-c1ccccc1 | – | – | – | – | > 100 µM (inactive) | 39.8 µM (inactive) | – | – |
| CC1=CC[C@H](C)C(C)(C)C1/C=C/C(C)=C/CC[C@@]1(CO)[C@H](CCCO)/C(=C(/C)C=O)CC[C@]1(C)O (stereo partly drawn) | 7.62 µM (inactive) | 15.5 µM (inactive) | – | – | – | – | 3.53 µM (inactive) | – |
| COc1cc(/N=N\c2ccc(OC)c(S(=O)(=O)O)c2)c(C)cc1/N=N\c1ccc(/C=C/c2ccc(/N=[N+](/[O-])c3ccc(/C=C/c4ccc(/N=N/c5cc(C)c(/N=N\c6ccc(OC)c(S(=O)(=O)O)c6)cc5OC)cc4S(=O)(=O)O)c(S(=O)(=O)O)c3)cc2S(=O)(=O)O)c(S(=O)(=O)O)c1 | – | > 100 µM (inactive) | – | – | – | – | > 100 µM (inactive) | – |
| Cc1ccc(NC(=O)S(N)(c2ccc(C)cc2)[N+](=O)[O-])cc1 (stereo not drawn) | – | – | > 100 µM (inactive) | 38 µM (inactive) | > 100 µM (inactive) | > 100 µM (inactive) | – | – |

From ChEMBL document CHEMBL1201862, “PubChem BioAssay data set” (2004)
